Source: PubChem BioAssay (NCI)
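48-hour exposure; five concentrations; linearly interpolated endpoints. Abbreviation: GI50, concentration required for 50% inhibition of growth. The concentration for full growth arrest is given as TGI.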

Tests used:
Experiment in all cases: NCI anticancer screen, dose series, 48 h
OVCAR-3 ovarian = tested on: OVCAR-3 ovarian
786-0 renal = tested on: 786-0 renal
ACHN renal = tested on: ACHN renal
MOLT-4 leukemia = tested on: MOLT-4 leukemia
PC-3 prostate = tested on: PC-3 prostate
TK-10 renal = tested on: TK-10 renal
HS 578T breast = tested on: HS 578T breast
HCT-15 colon = tested on: HCT-15 colon
HT29 colon = tested on: HT29 colon
SNB-75 CNS = tested on: SNB-75 CNS
T-47D breast = tested on: T-47D breast
NCI-H522 lung = tested on: NCI-H522 lung
IGROV1 ovarian = tested on: IGROV1 ovarian
HCT-116 colon = tested on: HCT-116 colon
SR leukemia = tested on: SR leukemia
K-562 leukemia = tested on: K-562 leukemia
CCRF-CEM leukemia = tested on: CCRF-CEM leukemia
SN12C renal = tested on: SN12C renal
UACC-62 melanoma = tested on: UACC-62 melanoma
UACC-257 melanoma = tested on: UACC-257 melanoma
NCI/ADR-RES ovarian = tested on: NCI/ADR-RES ovarian
COLO 205 colon = tested on: COLO 205 colon
SK-MEL-2 melanoma = tested on: SK-MEL-2 melanoma
CAKI-1 renal = tested on: CAKI-1 renal
U251 CNS = tested on: U251 CNS
MALME-3M melanoma = tested on: MALME-3M melanoma
M14 melanoma = tested on: M14 melanoma
OVCAR-5 ovarian = tested on: OVCAR-5 ovarian
UO-31 renal = tested on: UO-31 renal
SNB-19 CNS = tested on: SNB-19 CNS
HL-60(TB) leukemia = tested on: HL-60(TB) leukemia
NCI-H226 lung = tested on: NCI-H226 lung
SK-MEL-5 melanoma = tested on: SK-MEL-5 melanoma
MDA-MB-231 breast = tested on: MDA-MB-231 breast
SK-OV-3 ovarian = tested on: SK-OV-3 ovarian
DU-145 prostate = tested on: DU-145 prostate
MDA-MB-435 = tested on: MDA-MB-435
SF-539 CNS = tested on: SF-539 CNS
A498 renal = tested on: A498 renal
OVCAR-4 ovarian = tested on: OVCAR-4 ovarian
RPMI-8226 leukemia = tested on: RPMI-8226 leukemia
SK-MEL-28 melanoma = tested on: SK-MEL-28 melanoma

SMILES: Cn1cc(-c2cc3nc(-c4c[nH]c5ccc(Cl)cc45)cc(N)n3n2)c2ccccc21
- GI50 (OVCAR-3 ovarian): 2080 nM
- TGI (OVCAR-3 ovarian): 4.39 µM
- GI50 (786-0 renal): 1450 nM
- TGI (786-0 renal): 2830 nM
- GI50 (ACHN renal): 1540 nM
- TGI (ACHN renal): 2870 nM
- GI50 (MOLT-4 leukemia): 1620 nM
- TGI (MOLT-4 leukemia): 4.18 µM
- GI50 (PC-3 prostate): 1640 nM
- TGI (PC-3 prostate): 3.14 µM
- GI50 (TK-10 renal): 1260 nM
- TGI (TK-10 renal): 2580 nM
- GI50 (HS 578T breast): 1910 nM
- TGI (HS 578T breast): 4.8 µM
- GI50 (HCT-15 colon): 1470 nM
- TGI (HCT-15 colon): 2910 nM
- GI50 (HT29 colon): 1560 nM
- TGI (HT29 colon): 2980 nM
- GI50 (SNB-75 CNS): 1500 nM
- TGI (SNB-75 CNS): 3.24 µM
- GI50 (T-47D breast): 1840 nM
- TGI (T-47D breast): 4.14 µM
- GI50 (NCI-H522 lung): 1600 nM
- TGI (NCI-H522 lung): 3.23 µM
- GI50 (IGROV1 ovarian): 1570 nM
- TGI (IGROV1 ovarian): 3.13 µM
- GI50 (HCT-116 colon): 1620 nM
- TGI (HCT-116 colon): 2980 nM
- GI50 (SR leukemia): 1660 nM
- TGI (SR leukemia): 5.1 µM
- GI50 (K-562 leukemia): 2580 nM
- TGI (K-562 leukemia): 8.07 µM
- GI50 (CCRF-CEM leukemia): 3.12 µM
- TGI (CCRF-CEM leukemia): 11.2 µM
- GI50 (SN12C renal): 1710 nM
- TGI (SN12C renal): 3.17 µM
- GI50 (UACC-62 melanoma): 1630 nM
- TGI (UACC-62 melanoma): 3.06 µM
- GI50 (UACC-257 melanoma): 1690 nM
- TGI (UACC-257 melanoma): 3.23 µM
- GI50 (NCI/ADR-RES ovarian): 2110 nM
- TGI (NCI/ADR-RES ovarian): 4.73 µM
- GI50 (COLO 205 colon): 1800 nM
- TGI (COLO 205 colon): 3.35 µM
- GI50 (SK-MEL-2 melanoma): 1810 nM
- TGI (SK-MEL-2 melanoma): 3.54 µM
- GI50 (CAKI-1 renal): 1450 nM
- TGI (CAKI-1 renal): 2910 nM
- GI50 (U251 CNS): 1700 nM
- TGI (U251 CNS): 3.29 µM
- GI50 (MALME-3M melanoma): 1610 nM
- TGI (MALME-3M melanoma): 2970 nM
- GI50 (M14 melanoma): 1680 nM
- TGI (M14 melanoma): 3.14 µM
- GI50 (OVCAR-5 ovarian): 1570 nM
- TGI (OVCAR-5 ovarian): 3.04 µM
- GI50 (UO-31 renal): 1430 nM
- TGI (UO-31 renal): 2730 nM
- GI50 (SNB-19 CNS): 1680 nM
- TGI (SNB-19 CNS): 3.15 µM
- GI50 (HL-60(TB) leukemia): 2020 nM
- TGI (HL-60(TB) leukemia): 4.75 µM
- GI50 (NCI-H226 lung): 1890 nM
- TGI (NCI-H226 lung): 5.17 µM
- GI50 (SK-MEL-5 melanoma): 1670 nM
- TGI (SK-MEL-5 melanoma): 3.1 µM
- GI50 (MDA-MB-231 breast): 1790 nM
- TGI (MDA-MB-231 breast): 3.23 µM
- GI50 (SK-OV-3 ovarian): 1910 nM
- TGI (SK-OV-3 ovarian): 3.88 µM
- GI50 (DU-145 prostate): 1840 nM
- TGI (DU-145 prostate): 3.32 µM
- GI50 (MDA-MB-435): 1720 nM
- TGI (MDA-MB-435): 3.15 µM
- GI50 (SF-539 CNS): 1640 nM
- TGI (SF-539 CNS): 3.06 µM
- GI50 (A498 renal): 1600 nM
- TGI (A498 renal): 3.37 µM
- GI50 (OVCAR-4 ovarian): 1910 nM
- TGI (OVCAR-4 ovarian): 4.15 µM
- GI50 (RPMI-8226 leukemia): 2620 nM
- TGI (RPMI-8226 leukemia): 7.21 µM
- GI50 (SK-MEL-28 melanoma): 1560 nM
- TGI (SK-MEL-28 melanoma): 2900 nM
